According to the supplement of paper PMC8617591:

Experiments:
[1] = system: Mycobacterium tuberculosis Erdman (autoluminescent); assay: Einf, fitted maximum growth inhibition of three-drug combination (fraction); higher = stronger maximal inhibition
Experimental: (§1)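 DiaMOND equipotent three-drug combination dose responses (10 doses, 1.5- or 2-fold spacing, centred on IC90) against autoluminescent M. tuberculosis Erdman in 8 in vitro models. Read-out is OD600, or luminescence for the intracellular and dormancy models, normalised to untreated wells. Hill-fit Einf, AUC25 and GRinf are potency metrics; FIC50 and FIC90 are total Loewe fractional inhibitory concentrations as log2 (negative = synergy).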

[2] = system: Mycobacterium tuberculosis Erdman (autoluminescent); assay: AUC25, normalised area under dose response up to IC25 (three-drug combination) (fraction (0-1)); higher = more potent at low dose
Experimental: as §1

[3] = system: Mycobacterium tuberculosis Erdman (autoluminescent); assay: total FIC90 (Loewe) at 90% inhibition, three-drug combination (log2); higher = more antagonistic
Experimental: as §1

[4] = system: Mycobacterium tuberculosis Erdman (autoluminescent); assay: total FIC50 (Loewe) at 50% inhibition, three-drug combination (log2); higher = more antagonistic
Experimental: as §1

[5] = system: Mycobacterium tuberculosis Erdman (autoluminescent); assay: GRinf, maximum normalised growth rate inhibition (three-drug combination) (unitless (-1 to 1)); higher = less effect (negative = killing)
Experimental: as §1

NNC(=O)c1ccncc1 [isoniazid] + CC(=O)NC[C@H]1CN(c2ccc(N3CCOCC3)c(F)c2)C(=O)O1 [linezolid] + NC(=O)c1cnccn1 [pyrazinamide]
Conditions	AUC25, [2]	Einf, [1]	GRinf, [5]	total FIC50, [4]	total FIC90, [3]
in vitro model: acidic pH 5.7, time point: constant (~7 days, model-specific)	0.11	0.842	-0.287	-1.93	–
in vitro model: acidic pH 5.7, time point: terminal (~4-5 doublings, model-specific)	0.0984	0.983	-0.282	-1.83	-1.21
in vitro model: intracellular J774, time point: constant = terminal	–	0.956	-0.246	–	0.444

Conditions	AUC25, [2]	Einf, [1]	GRinf, [5]	total FIC50, [4]	total FIC90, [3]
in vitro model: butyrate, time point: constant (~7 days, model-specific)	0.108	0.91	0.0266	-1.9	1.62
in vitro model: butyrate, time point: terminal (~4-5 doublings, model-specific)	0.08	0.955	0.0226	-1.67	-1.24
in vitro model: cholesterol 0.05 mM, time point: constant (~7 days, model-specific)	0.144	0.686	-0.218	–	–
in vitro model: cholesterol 0.05 mM, time point: terminal (~4-5 doublings, model-specific)	0.14	0.89	-0.273	4.08	–
in vitro model: cholesterol-high 0.2 mM, time point: constant (~7 days, model-specific)	0.0969	0.893	-0.233	0.365	–
in vitro model: cholesterol-high 0.2 mM, time point: terminal (~4-5 doublings, model-specific)	0.0817	1	-0.765	0.683	0.315
in vitro model: dormancy (butyrate + nitrate, low O2), time point: constant (~7 days, model-specific)	0.0523	0.9	0.189	-1.89	-2.36
in vitro model: dormancy (butyrate + nitrate, low O2), time point: terminal (~4-5 doublings, model-specific)	0.0408	0.987	-0.229	-1.99	-2.42
in vitro model: standard 7H9 glycerol, time point: constant = terminal	0.0756	0.939	-0.0363	-5.13	–
in vitro model: valerate, time point: constant (~7 days, model-specific)	0.0944	0.836	0.0599	-2.58	–
in vitro model: valerate, time point: terminal (~4-5 doublings, model-specific)	0.0892	0.927	0.0322	-2.64	-3

NNC(=O)c1ccncc1 [isoniazid] + CC(=O)NC[C@H]1CN(c2ccc(N3CCOCC3)c(F)c2)C(=O)O1 [linezolid] + O=[N+]([O-])c1cn2c(n1)OC[C@@H](OCc1ccc(OC(F)(F)F)cc1)C2 [pretomanid]
Conditions	AUC25, [2]	Einf, [1]	GRinf, [5]	total FIC50, [4]	total FIC90, [3]
in vitro model: acidic pH 5.7, time point: constant (~7 days, model-specific)	0.0901	0.793	-0.0622	4.28	–
in vitro model: acidic pH 5.7, time point: terminal (~4-5 doublings, model-specific)	0.0757	0.953	-0.252	4.74	4.06
in vitro model: intracellular J774, time point: constant = terminal	–	0.984	-0.382	–	1.1

Conditions	AUC25, [2]	Einf, [1]	GRinf, [5]	total FIC50, [4]	total FIC90, [3]
in vitro model: butyrate, time point: constant (~7 days, model-specific)	0.103	0.921	-0.0322	2.79	1.15
in vitro model: butyrate, time point: terminal (~4-5 doublings, model-specific)	0.0738	0.963	-0.0424	2.83	3.23
in vitro model: cholesterol 0.05 mM, time point: constant (~7 days, model-specific)	0.129	0.69	-0.147	1.32	–
in vitro model: cholesterol 0.05 mM, time point: terminal (~4-5 doublings, model-specific)	0.124	0.912	-0.296	8.62	1.89
in vitro model: cholesterol-high 0.2 mM, time point: constant (~7 days, model-specific)	0.107	0.924	-0.361	0.772	–
in vitro model: cholesterol-high 0.2 mM, time point: terminal (~4-5 doublings, model-specific)	0.101	0.991	-0.726	0.566	1.06
in vitro model: dormancy (butyrate + nitrate, low O2), time point: constant (~7 days, model-specific)	0.0625	0.868	0.121	4.26	4.03
in vitro model: dormancy (butyrate + nitrate, low O2), time point: terminal (~4-5 doublings, model-specific)	0.0423	0.987	-0.233	4.19	4.02
in vitro model: standard 7H9 glycerol, time point: constant = terminal	0.0856	0.917	0.116	4.72	6.4
in vitro model: valerate, time point: constant (~7 days, model-specific)	0.126	0.88	0.0789	2.28	8.43
in vitro model: valerate, time point: terminal (~4-5 doublings, model-specific)	0.0856	0.93	0.029	2.36	2.72

NNC(=O)c1ccncc1 [isoniazid] + CO[C@H]1/C=C/O[C@@]2(C)Oc3c(C)c(O)c4c(O)c(c(/C=N/N5CCN(C6CCCC6)CC5)c(O)c4c3C2=O)NC(=O)/C(C)=C\C=C\[C@H](C)[C@H](O)[C@@H](C)[C@@H](O)[C@@H](C)[C@H](OC(C)=O)[C@@H]1C [rifapentine] + CO[C@H]1/C=C/O[C@@]2(C)Oc3c(C)c(O)c4c(O)c(c(/C=N/N5CCN(C)CC5)c(O)c4c3C2=O)NC(=O)/C(C)=C\C=C\[C@H](C)[C@H](O)[C@@H](C)[C@@H](O)[C@@H](C)[C@H](OC(C)=O)[C@@H]1C [rifampicin]
Conditions	AUC25, [2]	Einf, [1]	GRinf, [5]	total FIC50, [4]	total FIC90, [3]
in vitro model: acidic pH 5.7, time point: constant (~7 days, model-specific)	0.0821	0.87	-0.0825	0.753	–
in vitro model: acidic pH 5.7, time point: terminal (~4-5 doublings, model-specific)	0.0679	0.98	-0.129	0.528	0.407
in vitro model: intracellular J774, time point: constant = terminal	–	0.936	-0.1	–	0.217

Conditions	AUC25, [2]	Einf, [1]	GRinf, [5]	total FIC50, [4]	total FIC90, [3]
in vitro model: butyrate, time point: constant (~7 days, model-specific)	0.104	0.922	0.00523	0.263	0.467
in vitro model: butyrate, time point: terminal (~4-5 doublings, model-specific)	0.0874	0.967	0.000636	0.203	0.338
in vitro model: cholesterol 0.05 mM, time point: constant (~7 days, model-specific)	0.112	0.62	0.0102	0.806	–
in vitro model: cholesterol 0.05 mM, time point: terminal (~4-5 doublings, model-specific)	0.0884	0.883	-0.129	0.447	-0.00675
in vitro model: cholesterol-high 0.2 mM, time point: constant (~7 days, model-specific)	0.068	0.913	-0.352	0.176	–
in vitro model: cholesterol-high 0.2 mM, time point: terminal (~4-5 doublings, model-specific)	0.055	0.998	-0.762	0.475	0.196
in vitro model: dormancy (butyrate + nitrate, low O2), time point: constant (~7 days, model-specific)	0.0473	0.859	0.242	-0.0392	-0.445
in vitro model: dormancy (butyrate + nitrate, low O2), time point: terminal (~4-5 doublings, model-specific)	0.0455	0.984	-0.157	-0.192	-0.199
in vitro model: standard 7H9 glycerol, time point: constant = terminal	0.0666	0.906	0.0924	0.523	–
in vitro model: valerate, time point: constant (~7 days, model-specific)	0.0385	0.881	-0.0115	0.498	–
in vitro model: valerate, time point: terminal (~4-5 doublings, model-specific)	0.0262	0.941	0.00295	0.354	0.159
